The source of these data is US11951167B2, “Targeted liposomes” (GEORGETOWN UNIVERSITY, priority 2012, dated 2024).

A value given as a limit tells only on which side of the number the result lay.

One assay deals with intracranial T98G tumors. The assay can be described thus: Survival of mice with TMZ resistant intracranial GBM tumors. The format is in vivo, athymic nude mice. Particulars: TMZ 100 mg/m^2 i.v. daily for 14 days; scL-p53 30 ug DNA twice weekly for 2 weeks. The method, then:
Thus an experiment was performed to assess survival of mice bearing intracranial tumors derived from TMZ resistant human GBM cell line T98G. Athymic nude mice were intracranially inoculated with T98G human glioblastoma cell line. Ten days after the inoculation, animals were imaged by MRI and evenly divided into 3 groups. Treatment was started immediately after imaging. The animals were iv treated with 100 mg/m^2 of TMZ once a day for 14 consecutive days, iv administered scL-p53 (30 ug DNA/injection) (prepared as described in U.S. Pat. No. 7,780,882) twice weekly for 2 weeks, or the combination of both treatments. Survival was monitored. The number of mice surviving/group at day 14 is indicated for each group. […] In contrast, 4 of 5 mice that had received the combination therapy were still surviving.

The subject of assay [1] is U251 cells. The experiment in a line: XTT cell viability, liposome TMZ vs free TMZ. The format is cell-based, human. Particulars: at 16-46.3 μM TMZ. The method, then: Studies were carried out to compare the efficacy of standard free (unencapsulated) TMZ; and unliganded TMZ-containing liposomes (Lip-TMZ) The Lip-TMZ was prepared as described above in Example 1 using a liposome concentration of 2 mM. The zeta potentials of the Lip-TMZ molecules ranged from 35.6-40.1 mV. The TMZ concentration used was varied from 1 to about 250 uM. The ratios of Liposome to TMZ was 0.5:1, 1:1 or 2:1 (molar ratio).
Human brain tumor derived U251 cells were plated in triplicate at 2×10^3 per well in a 96-well plate. Following overnight incubation, the medium was replaced with serum-free medium, overlaid with 100 μL of indicated concentrations of either Lip-TMZ, or free TMZ, incubated for 5 h, and then supplemented with fetal bovine serum. After incubation for an additional 91 h, cell viability was determined by the XTT assay as described previously (Rait A, Pirollo K F, Rait V, et al. Inhibitory effects of the combination of HER-2 antisense oligonucleotide and chemotherapeutic agents used for the treatment of human breast cancer. Cancer Gene Ther 2001; 8:728-39.). Formazan absorbance, which correlates to cell viability, was measured at 450 nm using a microplate reader (Bio-Rad, Hercules, Calif.).

The next assay deals with T98G cells. Particulars: TMZ resistant T98G, XTT.
Another assay relates to U87 cells. The assay can be described thus: XTT sensitization to TMZ by scL-p53. Format: cell-based, human. The conditions noted are these: XTT 144 h after TMZ addition. The method, then:
(§1) To assess the ability of scL delivered wtp53 to sensitize brain tumor cells to first-line chemotherapeutic agent TMZ, human brain tumor derived U87 and U251 cells were treated with TMZ alone, or the combination of TMZ plus scL-p53 (prepared as described in U.S. Pat. No. 7,780,882). As a control, cells were also treated with the combination of TMZ and the scL delivery system carrying the same vector used to construct the pSCMVp53 plasmid, but without the p53 insert (scL-vec). The cells were plated in a 96-well plate and treated 24 hours later with scL-p53 or scL-vec. 6 hours post-transfection, the TMZ was added in increasing concentrations. […] As these two cell lines are known to be sensitive to TMZ, it was not unexpected that there was some response to TMZ alone.

Assay [2] has as its system U251 cells. The assay can be described thus: XTT sensitization to TMZ by scL-p53. Format: cell-based, human. The conditions noted are these: XTT 144 h after TMZ addition. The method, then: as §1
The subject of assay [3] is intracranial U87MG-luc2 glioblastoma tumor xenografts. The experiment in a line: Efficacy in intracranial GBM xenografts (MRI, BLI, body weight, survival). The method, then:
Intra cranial GBM tumors were induced in 5-6 week old female athymic nude mice by stereotaxic inoculation of U87MG-luc2 cells that stably carry the luciferase gene. Seven to ten days post-inoculation, tumors were evaluated by bioluminescence using Xenogen IVIS in vivo imaging system (Caliper Life Sciences) and mice were evenly divided into treatment groups. Treatment was initiated on the day of randomization (day 0). Animals were injected intravenously (i.v.) via the tail vein with 5 mg/kg (per injection per mouse) of TMZ alone or TfRscFv-targeted TMZ cationic liposome complex (scL-TMZ). […] Mice were injected twice per week with each reagent for 5 weeks. Control animals (Vehicle) received Liposome only (no TMZ, no TfRscFv).
Assessment of in vivo efficacy: The in vivo response to treatment was evaluated based upon the changes in tumor growth, body weight change, and overall survival. Tumor growth was monitored by bioluminescence imaging (BLI) using Xenogen IVIS in vivo imaging system before, during, and after the treatments at the indicated date. […] The bioluminescence intensity of the brain tumors, a measure of tumor size/growth, was measured and compared between treatment groups. Half-way through treatment (after mice received 3 weeks of treatment with each reagent), all animals were scanned with magnetic resonance imaging (MRI) to evaluate the brain tumor. […] Tumor volume was calculated from the MRI scan and compared between treatment groups. Body weight change was monitored weekly. Overall survival was recorded and plotted by Kaplan-Meier method.
In a second experiment, different doses/number of injections per week of scL-TMZ, prepared as described herein, were compared. Groups of mice bearing U87MG-luc2 glioblastoma intracranial xenograft tumors were iv tail vein injected for 5 weeks with scL-TMZ at: 2.5 mg/kg one injection per week; 5 mg/kg one injection per week; or 5 mg/kg two injections per week and survival determined.

For assay [4], the system named is U87MG-Luc xenograft brain tumors. The assay can be described thus: Survival of mice with intracranial GBM tumors (Kaplan-Meier). Format: in vivo, nude mice. The method, then: U87MG-Luc xenograft brain tumors were induced in nude mice as described above. 10 days post-inoculation, tumor-bearing animals were i.v. tail vein injected with TMZ alone (25.0 mg/kg/injection), scL-p53 alone (30 ug DNA/mouse/injection) (prepared as described in U.S. Pat. No. 7,780,882) or TMZ in combination with scL-p53. As a control, one group received PBS (vehicle). All i.v. injections were administered 2×/week to a total of 10 injections. The animals were monitored 2-3 times/week and euthanized when moribund. The gray bar in FIG. 27 indicates the duration of treatment.

[5] abbreviates: 5 mg/kg i.v. twice per week for 5 weeks.

Description for T98G cells: The in vitro cell killing ability of the scL-TMZ was compared to free, unencapsulated TMZ in TMZ resistant human brain tumor cell line T98G using the XTT assay.

Turning to `Cn1nnc2c(C(N)=O)ncn2c1=O` [TMZ, temozolomide], the “mice surviving at day 14” value in the assay with intracranial T98G tumors is on record as “a significant number of animals succumbed”. In addition, the cell killing effect result with U251 cells [1] is “virtually no cell killing effect”. For the same compound, in the assay with T98G cells, the IC50 is above 1000 µM. For the same compound, the “sensitization/response to TMZ” value with U87 cells was “some response”. In addition, in the assay with U251 cells [2], the “sensitization/response to TMZ” value is reported as “some response”. In assay [3] (setting [5]), the “long term survival (Kaplan-Meier)” value is recorded as “extended the lifespan” and the “time tumor growth was controlled (BLI)” value was around 2.5 weeks. Besides, in assay [3] (5 mg/kg i.v. twice per week, after 3 weeks (6 injections)), the “tumor growth by MRI” value is listed as “some tumor growth inhibition”. For the same compound, the “day by which all of the mice succumbed to their tumor” value in assay [4] (TMZ 25.0 mg/kg) was around 155 days. The “Median Survival” value in assay [4] (TMZ 25.0 mg/kg, scL-p53 30 ug DNA/mouse, i.v. 2x/week, 10 injections) was 112 days. For the same compound, the “Survival Prolongation (%)” value in assay [4] (ratio of the median survival of untreated GBM xenografts) was 348%.
